A word on the MIC: it is the least concentration at which growth counts as inhibited.

Type in all cases: functional
Experiment [1] has as its system Candida albicans. Description: Antifungal activity against Candida albicans isolate 488 harboring ERG3 H243N, T330A, A351V and ERG11 D225G, E266D, E391G, V488I mutant genes by broth microdilution method.
The subject of experiment [2] is Candida albicans. The experiment in a line: Antifungal activity against Candida albicans isolate 12 harboring ERG3 W332R mutant gene assessed as 14alpha-methyl fecosterol content in total sterol composition at 0.5 times MIC by GC-MS analysis.
Experiment [3] deals with Candida albicans. The experiment in a line: Antifungal activity against Candida albicans isolate 12 harboring ERG3 W332R mutant gene assessed as lanosterol/obtusifoliol content in total sterol composition at 0.5 times MIC by GC-MS analysis.
In experiment [4] the test system is Candida albicans. Description: Antifungal activity against Candida albicans isolate 177 assessed as ergosterol content in total sterol composition at 0.5 times MIC by GC-MS analysis.
For experiment [5], the system named is Candida albicans. The experiment in a line: Antifungal activity against Candida albicans isolate 488 harboring ERG3 H243N, T330A, A351V and ERG11 D225G, E266D, E391G, V488I mutant genes by broth microdilution method in presence of 10 uM drug efflux inhibitor FK506. For orientation: In broth dilution the organism is exposed to a series of concentrations in liquid medium.

Experiment [6] concerns Candida albicans. Description: Antifungal activity against Candida albicans isolate 14 assessed as ergosterol content in total sterol composition at 0.5 times MIC by GC-MS analysis.
For experiment [7], the system named is Candida albicans. Description: Antifungal activity against Candida albicans isolate 488 harboring ERG3 H243N, T330A, A351V and ERG11 D225G, E266D, E391G, V488I mutant genes assessed as lanosterol/obtusifoliol content in total sterol composition at 0.5 times MIC by GC-MS analysis.
For experiment [8], the system named is Candida albicans. The experiment in a line: Antifungal activity against Candida albicans isolate 177 by broth dilution method in presence of 10 uM drug efflux inhibitor FK506.
Experiment [9] deals with Candida albicans. The experiment in a line: Antifungal activity against Candida albicans isolate 12 harboring ERG3 W332R mutant gene assessed as 14alpha-methylergosta-8,24(28)-dien-3beta,6alpha-diol content in total sterol composition at 0.5 times MIC by GC-MS analysis.
For experiment [10], the system named is Candida albicans. Description: Antifungal activity against Candida albicans isolate 14 by broth microdilution method in presence of 10 uM drug efflux inhibitor FK506.
The test system of experiment [11] is Candida albicans. The experiment in a line: Antifungal activity against Candida albicans isolate 177 assessed as lanosterol/obtusifoliol content in total sterol composition at 0.5 times MIC by GC-MS analysis.

Structures are written as SMILES.

As for `OC(Cn1cncn1)(Cn1cncn1)c1ccc(F)cc1F` [FLUCONAZOLE], the minimum inhibitory concentration (MIC) is > 256 mg/L with Candida albicans [1], 2 mg/L in the experiment with Candida albicans [5], 0.5 mg/L in the experiment on Candida albicans [8] and 1 mg/L with Candida albicans [10]. Besides, the Activity in the experiment on Candida albicans [2] is reported as 64.3%; in the experiment with Candida albicans [3], 18.3%; with Candida albicans [4], 76%; in the experiment on Candida albicans [6] it was 89.4%; in the experiment on Candida albicans [7], 15.2%; in the experiment on Candida albicans [9] it was 1.6%. Further, the Activity with Candida albicans [11] is recorded as 10.6%.

The record behind these values is ChEMBL document CHEMBL1687791, “Identification and characterization of four azole-resistant erg3 mutants of Candida albicans” (2010).
